In patent US10709707B2, “Methods of treating ocular conditions” (Oyster Point Pharma, Inc., priority 2016, dated 2020):
“Also recorded” adds a separate entry of the source.

What was measured:
[1] = target: human α4β2 (Homo sapiens, UniProt P17787+P43681); assay: Receptor binding α4β2, recombinant human receptors in SH-EP1 cells; conditions: [3H]-S-nicotine, human α4β2 expressed in SH-EP1 cells
[2] = Solubility in aqueous solutions; type: physicochemical
[3] = target: high and low sensitivity alpha4beta2-containing NNR subtypes (Homo sapiens, UniProt P17787+P43681); assay: Electrophysiology studies; type: cell-based
Description: It is readily absorbed following oral administration and has favorable pharmacokinetics.

[4] = system: respiratory parameters; assay: Respiratory safety pharmacology; type: in vivo, Rat: Sprague-Dawley
[5] = system: STZ rat model of diabetic neuropathy; assay: Mechanical allodynia, STZ rat model of diabetic neuropathy; type: in vivo, Rat: Sprague-Dawley
[6] = system: cultured human peripheral blood lymphocytes; assay: chromosome aberration assay; type: cell-based; conditions: in vitro
Description: (§1) Compound 1 was negative for mutagenicity in both in vitro bioassays—including an Ames test, a micronucleus test in mouse lymphoma cells, and a chromosome aberration assay using cultured human peripheral blood lymphocytes—and an in vivo rat bone marrow micronucleus test.

[7] = stability in human liver microsomes, heat-treated human liver microsomes and human S9 fractions; type: in vitro ADME; conditions: all test systems
Description: In human and monkey, the primary route of metabolism was through oxidation of the pyrrolidine ring (metabolite M02) before further metabolism via dioxidation to M1 or M3. In humans, parent accounted for 37% of extracellular radioactivity, M02 was 13.9%.M1 was 4.1% and M3 was 1.1%. In monkey, parent accounted for 14.2%, M02 was 5.0%, M1 was 5.8% and M3 was 29.4%. In the rat, the primary metabolite is an N-oxide-pyrimidine derivative (M9); it accounted for 71.9% of extracellular radioactivity while parent represented only 1.4%.

[8] = Stability study of drug substance; type: physicochemical
Protocol: A previous cGMP lot of Compound 1 was manufactured.
There was a slight decrease in assay value below the 98% specification at 6 month 40° C./75% RH and 9 month 30° C./65% RH. However, based on the minimal change at accelerated conditions and the stability of the real time data, the drug substance is currently considered to be stable for at least 36 months.

[9] = Single dose pharmacokinetics, rat; type: in vivo, Sprague-Dawley rat; conditions: for AUC(0-t): read-out: AUC0-1
[10] = system: neuronal nicotinic receptors; assay: In vitro binding (off-target receptors) at 10 μM; conditions: hemigalactarate salt
[11] = system: mouse lymphoma cells; assay: micronucleus test in mouse lymphoma cells; type: cell-based; conditions: in vitro
Description: as §1

[12] = Ames test; type: cell-based; conditions: in vitro
Description: as §1

[13] = system: Rabbit Purkinje fibers; assay: Cardiovascular safety, rabbit Purkinje fibers in vitro
[14] = system: behavioral sensitization; assay: CNS safety pharmacology, behavioral sensitization by motor activity; type: in vivo, Rat: Sprague-Dawley
[15] = Single dose pharmacokinetics, mouse; type: in vivo, Swiss mouse; conditions: for half-life: po, 1 mg/kg
[16] = target: T1, rat ganglion receptors α3β4 (Rattus norvegicus, UniProt P04757+P12392); assay: Receptor function ganglionic receptors (rat), PC-12 cells; type: cell-based; conditions: for Emax: PC-12, Rat ganglion-type (a3b4*)
T1 construct: endogenous in cells; host or cells: PC-12 cells (per the earlier reading)

[17] = plasma protein binding; type: in vitro ADME; conditions: mouse, rat, guinea pig, dog, monkey and human plasma; concentrations up to about 113 μM
[18] = Sprague-Dawley, plasma, S-D rat, 30 mg/kg [14C]-Compound 1, oral
[19] = male, Sprague-Dawley, plasma, S-D rat, 0.3 mg/kg Compound 1, oral
[20] = male, Sprague-Dawley, plasma, S-D rat, 3 mg/kg Compound 1, oral
[21] = plasma, Swiss mouse, 1.0 mg/kg Compound 1, oral

T1 sequence (P04757 26-499): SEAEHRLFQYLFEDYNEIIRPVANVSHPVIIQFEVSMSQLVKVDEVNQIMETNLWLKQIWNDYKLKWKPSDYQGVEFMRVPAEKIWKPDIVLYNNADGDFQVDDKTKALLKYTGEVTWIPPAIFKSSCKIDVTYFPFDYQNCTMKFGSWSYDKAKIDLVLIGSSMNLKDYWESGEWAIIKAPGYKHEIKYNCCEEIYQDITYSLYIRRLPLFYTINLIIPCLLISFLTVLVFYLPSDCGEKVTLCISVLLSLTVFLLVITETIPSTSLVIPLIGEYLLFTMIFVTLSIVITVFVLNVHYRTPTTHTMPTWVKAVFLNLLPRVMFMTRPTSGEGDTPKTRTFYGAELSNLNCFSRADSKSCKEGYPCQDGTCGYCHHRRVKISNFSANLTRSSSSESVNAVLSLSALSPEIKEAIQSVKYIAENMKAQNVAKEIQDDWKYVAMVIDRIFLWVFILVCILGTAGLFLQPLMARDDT
T1 sequence (P12392 21-495): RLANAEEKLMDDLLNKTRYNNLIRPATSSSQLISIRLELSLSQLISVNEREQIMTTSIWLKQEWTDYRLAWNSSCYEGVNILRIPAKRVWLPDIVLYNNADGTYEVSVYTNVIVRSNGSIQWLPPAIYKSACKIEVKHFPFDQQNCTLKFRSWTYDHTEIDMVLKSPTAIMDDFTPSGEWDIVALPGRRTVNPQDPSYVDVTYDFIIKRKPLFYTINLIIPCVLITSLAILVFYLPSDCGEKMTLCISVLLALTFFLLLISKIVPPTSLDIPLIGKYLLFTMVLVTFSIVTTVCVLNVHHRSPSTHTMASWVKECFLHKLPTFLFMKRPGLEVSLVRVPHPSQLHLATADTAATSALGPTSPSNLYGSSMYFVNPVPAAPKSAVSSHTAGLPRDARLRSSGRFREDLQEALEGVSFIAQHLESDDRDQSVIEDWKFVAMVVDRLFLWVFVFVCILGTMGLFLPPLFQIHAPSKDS
Sequence of high and low sensitivity alpha4beta2-containing NNR subtypes (P43681 29-627 limits assumed): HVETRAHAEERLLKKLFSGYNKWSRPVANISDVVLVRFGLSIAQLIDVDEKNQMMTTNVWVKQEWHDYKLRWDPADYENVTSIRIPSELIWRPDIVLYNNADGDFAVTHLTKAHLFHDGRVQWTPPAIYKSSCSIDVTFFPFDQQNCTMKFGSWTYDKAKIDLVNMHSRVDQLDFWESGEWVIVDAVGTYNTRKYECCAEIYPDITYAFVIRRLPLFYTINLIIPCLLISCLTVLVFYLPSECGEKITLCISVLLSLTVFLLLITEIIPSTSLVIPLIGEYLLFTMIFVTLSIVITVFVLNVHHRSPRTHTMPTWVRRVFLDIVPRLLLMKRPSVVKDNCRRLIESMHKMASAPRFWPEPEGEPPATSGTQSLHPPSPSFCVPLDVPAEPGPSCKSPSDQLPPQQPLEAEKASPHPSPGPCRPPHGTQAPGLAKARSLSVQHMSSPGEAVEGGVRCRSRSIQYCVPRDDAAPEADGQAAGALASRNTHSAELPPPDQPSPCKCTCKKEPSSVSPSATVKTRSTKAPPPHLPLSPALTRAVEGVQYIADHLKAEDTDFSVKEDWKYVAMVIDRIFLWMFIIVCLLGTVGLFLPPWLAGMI
Sequence of high and low sensitivity alpha4beta2-containing NNR subtypes (P17787 26-502): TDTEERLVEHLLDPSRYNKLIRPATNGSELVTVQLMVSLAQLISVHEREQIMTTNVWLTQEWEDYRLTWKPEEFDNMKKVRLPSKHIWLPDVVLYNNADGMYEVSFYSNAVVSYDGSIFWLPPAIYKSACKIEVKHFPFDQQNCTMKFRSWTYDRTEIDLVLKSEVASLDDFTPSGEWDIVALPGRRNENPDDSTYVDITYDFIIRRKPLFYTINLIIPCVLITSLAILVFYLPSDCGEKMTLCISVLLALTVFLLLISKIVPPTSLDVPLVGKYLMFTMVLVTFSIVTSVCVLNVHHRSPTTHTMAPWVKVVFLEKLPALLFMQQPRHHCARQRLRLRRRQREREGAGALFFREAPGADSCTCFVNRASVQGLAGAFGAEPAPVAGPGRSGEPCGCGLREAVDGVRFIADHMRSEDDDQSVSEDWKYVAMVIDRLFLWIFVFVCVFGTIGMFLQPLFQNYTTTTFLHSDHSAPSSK
Sequence of human α4β2 (P43681 29-627 limits assumed): as the sequence (P43681 29-627 limits assumed) above
Sequence of human α4β2 (P17787 26-502): as the sequence (P17787 26-502) above

C(=C\[C@H]1CCNC1)/c1cncnc1 [Compound 1, (R)-5-((E)-2-pyrrolidin-3-ylvinyl)pyrimidine]
Ki [1]: 0.017 µM | solubility ([2]; 0.1N HCl, simulated gastric fluid): > 10000 µg/mL | solubility ([2]; Water (pH 5.9)): > 10000 µg/mL | solubility ([2]; aqueous buffer, 0.1M citrate buffer (pH 4.0)): > 10000 µg/mL | solubility ([2]; aqueous buffer, 0.1M phosphate buffer (pH 6.8)): > 10000 µg/mL | activity at high and low sensitivity alpha4beta2-containing NNR subtypes [3]: agonist activity | respiratory rate, minute volume, peak inspiratory flow ([4]; 100 mg/kg po): Transient adverse effects; also recorded: shortlasting increase in respiratory rate, | respiratory parameters ([4]; 10 and 30 mg/kg po): 10 and 30 mg/kg did not cause changes | tidal volume and index of airway resistance ([4]; 5 hour observation period): There were no changes in tidal volume and | NOEL, respiratory ([4]; po): The NOEL was 30 mg/kg. | allodynia, acute dosing ([5]; 0.5 and 2 hr post-dosing, Compound 1 0.1 and 1 mg/kg po, Gabapentin 100 mg/kg ip): significantly reversed; also recorded: Acute Dosing - Compound 1 reversed | onset of action ([5]; animal models of neuropathic pain, compared to gabapentin): 30 min | allodynia, repeat dosing ([5]; once daily 0.1, 1, 10 mg/kg po, all doses, 6 weeks post-STZ dosing): significantly reversed; also recorded: all dosessignificantly reduced | dose levels producing reversal of mechanical allodynia ([5]; repeat dosing, 4 weeks post-dosing): 4 weeks post-dosing, no dose | mutagenicity, chromosome aberration assay [6]: negative | metabolic stability [7]: relatively stable | assay value ([8]; 6 month, 40° C./75% RH): < 98% | assay value ([8]; 9 month, 30° C./65% RH): < 98% | Assay (HPLC-UV) ([8]; 25° C./60% RH, 1 M): 102.4% | Related Substances, RRT = 0.26 ([8]; 25° C./60% RH, 1 M): 0.09 % w/w | Total Related Substances ([8]; 25° C./60% RH, 1 M): 0.09% | Water Content (Karl Fischer) ([8]; 25° C./60% RH, 1 M): 12.10 % w/w | Assay (HPLC-UV) ([8]; 25° C./60% RH, 3 M): 100.2% | Related Substances, RRT = 0.26 ([8]; 25° C./60% RH, 3 M): 0.09 % w/w | Total Related Substances ([8]; 25° C./60% RH, 3 M): 0.09% | Water Content (Karl Fischer) ([8]; 25° C./60% RH, 3 M): 12.25 % w/w | Assay (HPLC-UV) ([8]; 25° C./60% RH, 6 M): 98.9% | Total Related Substances ([8]; 25° C./60% RH, 6 M): 0.05% | Water Content (Karl Fischer) ([8]; 25° C./60% RH, 6 M): 12.04 % w/w | Assay (HPLC-UV) ([8]; 25° C./60% RH, 9 M): 99.7% | Related Substances, RRT = 0.26 ([8]; 25° C./60% RH, 9 M): 0.09 % w/w | Total Related Substances ([8]; 25° C./60% RH, 9 M): 0.12% | Water Content (Karl Fischer) ([8]; 25° C./60% RH, 9 M): 11.52 % w/w | Assay (HPLC-UV) ([8]; 25° C./60% RH, 12 M): 101.2% | Chiral Purity ([8]; 25° C./60% RH, 12 M): 100 % ee | Related Substances, RRT = 0.18 ([8]; 25° C./60% RH, 12 M): 0.10 % w/w | Related Substances, RRT = 0.88 ([8]; 25° C./60% RH, 12 M): 0.05 % w/w | Total Related Substances ([8]; 25° C./60% RH, 12 M): 0.16% | Water Content (Karl Fischer) ([8]; 25° C./60% RH, 12 M): 11.52 % w/w | Assay (HPLC-UV) ([8]; 25° C./60% RH, 18 M): 100.4% | Related Substances, RRT = 0.26 ([8]; 25° C./60% RH, 18 M): 0.07 % w/w | Total Related Substances ([8]; 25° C./60% RH, 18 M): 0.07% | Water Content (Karl Fischer) ([8]; 25° C./60% RH, 18 M): 11.50 % w/w | Assay (HPLC-UV) ([8]; 25° C./60% RH, 24 M): 100.0% | Chiral Purity ([8]; 25° C./60% RH, 24 M): 100 % ee | Related Substances, RRT = 0.26 ([8]; 25° C./60% RH, 24 M): 0.05 % w/w | Total Related Substances ([8]; 25° C./60% RH, 24 M): 0.05% | Water Content (Karl Fischer) ([8]; 25° C./60% RH, 24 M): 11.42 % w/w | Assay (HPLC-UV) ([8]; 25° C./60% RH, 36 M): 99.7% | Chiral Purity ([8]; 25° C./60% RH, 36 M): 100 % ee | Related Substances, RRT = 0.26 ([8]; 25° C./60% RH, 36 M): 0.04 % w/w | Total Related Substances ([8]; 25° C./60% RH, 36 M): 0.04% | Water Content (Karl Fischer) ([8]; 25° C./60% RH, 36 M): 11.53 % w/w | Assay (HPLC-UV) ([8]; 25° C./60% RH, Initial): 100.9% | Chiral Purity ([8]; 25° C./60% RH, Initial): 100 % ee | Related Substances, RRT = 0.26 ([8]; 25° C./60% RH, Initial): 0.05 % w/w | Total Related Substances ([8]; 25° C./60% RH, Initial): 0.05% | Water Content (Karl Fischer) ([8]; 25° C./60% RH, Initial): 11.36 % w/w | time for which drug substance is considered stable ([8]; real time 25° C./60% RH data): at least 36 months | Cmax [9, 18]: 1710 ng/mL | Tmax [9, 18]: 15 min | AUC(0-t) ([9]; Sprague-Dawley, plasma, S-D rat, 30 mg/kg [14C]-Compound 1, oral, t = 168 h): 3310 ng·h/mL | half-life ([9]; Sprague-Dawley, plasma, S-D rat, 30 mg/kg [14C]-Compound 1, oral, read-out: t1/2 (converted)): 72 min | Cmax and AUC0-24 vs dose ([9]; male rats, 3 mg/kg group vs 0.3 mg/kg, oral): higher than dose-proportional | Cmax [9, 19]: 6.51 ng/mL | Tmax [9, 19]: 30 min | AUC(0-t) ([9]; male, Sprague-Dawley, plasma, S-D rat, 0.3 mg/kg Compound 1, oral, t = 25 h): 13.5 ng·h/mL | half-life ([9]; male, Sprague-Dawley, plasma, S-D rat, 0.3 mg/kg Compound 1, oral, read-out: t1/2 (converted)): 84 min | Cmax [9, 20]: 169 ng/mL | Tmax [9, 20]: 10 min | AUC(0-t) ([9]; male, Sprague-Dawley, plasma, S-D rat, 3 mg/kg Compound 1, oral, t = 25 h): 211 ng·h/mL | half-life ([9]; male, Sprague-Dawley, plasma, S-D rat, 3 mg/kg Compound 1, oral, read-out: t1/2 (converted)): 84 min | Kp ([9]; male, Sprague-Dawley, rat, brain, oral, 0.3 or 3 mg/kg orally, read-out: brain exposure as share of plasma exposure): ~0.15 | half-life ([9]; male, Sprague-Dawley, rat, plasma and brain, po, 0.3 or 3 mg/kg orally, read-out: half-life (plasma and brain concentrations) (converted)): 84 min | binding affinity [10]: nicotinic receptors (100%), the only | mutagenicity, micronucleus test [11]: negative | mutagenicity, Ames test [12]: negative | lengthening of action potential duration ([13]; 30 μM): 7% | lengthening of action potential duration ([13]; 100 μM): 20% | resting membrane potential, action potential amplitude, Vmax ([13]; any concentration (3-100 μM)): no effect on resting membrane potential, | action potential duration ([13]; at 3 and 10 μM): no effect | action potential duration ([13]; at 30 and 100 μM, concentration dependent): dependent lengthening of the action | interaction between Compound 1 and nicotine in behavioral sensitization ([14]; 30 mg/kg, 15 days cross-challenge): daily for 15 days indicated no interaction | behavioral sensitization (motor activity) ([14]; Compound 1 3, 10, 30 mg/kg po): no noteworthy changes; also recorded: not associated with behavioral | Kp ([15]; Swiss, mouse, brain, oral, 1 mg/kg orally, read-out: brain exposure as share of plasma exposure): ~0.3 | half-life ([15]; Swiss, mouse, plasma, 1 mg/kg orally, read-out: terminal elimination half-life (converted)): ~30 min | half-life ([15]; Swiss, mouse, plasma, Swiss mouse, 1.0 mg/kg Compound 1, oral, read-out: t1/2 (converted)): 30 min | Cmax [15, 21]: 15 ng/mL | Tmax [15, 21]: 10 min | AUC(0-t) ([15]; plasma, Swiss mouse, 1.0 mg/kg Compound 1, oral, t = 25 h, read-out: AUC0-1): 10.1 ng·h/mL | Emax ([16]; Ca++ Flux): 35% | Emax ([16]; Rb+ Flux, single point): 19% | Activity at rat ganglion receptors ([16]; PC-12 cells): receptors in PC-12 cells was low (19%). | EC50 ([16]; Rat ganglion-type (a3b4*), Ca++ Flux): 53 µM | fraction unbound [17]: > 0.87
